Like-named read-outs stand apart in the source and are kept apart here.

The values that follow come from patent publication US20230028539A1, “PHARMACEUTICAL COMPOSITION, COMPLEMENTARY KIT AND APPLICATION THEREOF” (SHANGHAI PHARMACEUTICALS HOLDING CO., LTD., priority 2019, published 2023).

In test [1] the test system is MPTP-induced mouse Parkinson's disease model. Description: MPTP-induced mouse Parkinson's disease model, dopamine content in dorsal striatum by LC-MS. Type of test: in vivo, male C57BL/6J mice. The method, then: Animals in control group were injected with an equal volume of […]. After 6 weeks, mice were euthanized and the dorsal striatum was separated after normal saline perfusion, weighed and preserved in a −80° C. freezer. The content of dopamine in dorsal striatal was determined by LC-MS. [table]

For the next test, the target named is T1, MAO-B (Homo sapiens, UniProt P27338).
T1 sequence (P27338 1-520): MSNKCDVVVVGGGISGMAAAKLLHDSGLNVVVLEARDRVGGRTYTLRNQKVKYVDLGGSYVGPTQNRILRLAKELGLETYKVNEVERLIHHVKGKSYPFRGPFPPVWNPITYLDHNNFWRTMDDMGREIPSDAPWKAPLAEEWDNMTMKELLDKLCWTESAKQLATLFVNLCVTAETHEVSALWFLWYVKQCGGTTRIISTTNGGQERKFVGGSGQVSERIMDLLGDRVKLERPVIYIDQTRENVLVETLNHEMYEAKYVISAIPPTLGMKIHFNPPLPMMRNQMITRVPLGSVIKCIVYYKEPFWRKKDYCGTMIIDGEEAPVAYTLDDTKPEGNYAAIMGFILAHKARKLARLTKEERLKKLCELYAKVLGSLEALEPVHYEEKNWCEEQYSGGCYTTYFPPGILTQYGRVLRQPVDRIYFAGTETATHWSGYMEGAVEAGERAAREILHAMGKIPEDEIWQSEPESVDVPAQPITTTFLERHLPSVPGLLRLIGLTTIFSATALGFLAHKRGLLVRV
The following applies: cited from earlier work; for inhibitory strength to MAO-B than that to MAO-A: selectivity MAO-B over MAO-A.

The subject of test [2] is 6-OHDA-induced unilateral damage PD model. Description: Apomorphine-induced contralateral circling test in 6-OHDA-induced rat Parkinson's disease model. Type of test: in vivo, male Wistar rat. The following applies: after 29 days of treatment, FIG. 3. The protocol:
3.1.2 The animals were injected intraperitoneally with APO (0.5 mg/kg, 2 mL/kg) 3 minutes before testing.
3.1.3 The animals were placed in a circular test box after dosing. Changes in animal behavior were observed and recorded by Ethovi si on video software, and the number of revolutions of each animal within 30 min was counted manually.
3.1.4 APO-induced circling behavior: The animal circled rightwards with the left hind limb as the fulcrum. One turn was counted as one revolution by taking the head of the rat as a reference. Animals with more than 180 revolutions within 30 min were qualified rat Parkinson's disease models.
3.2.1 140 animals were randomly selected, and intramuscularly injected with Zoletil at 30 mg/kg in combination with 3 mg/kg of xylazine hydrochloride for general anesthesia before the operation.
3.2.7 The injection of 6-OHDA was started 2 min after the needle reached the designated depth. […]
3.3.3 The animals were placed in a circular test box after dosing. Changes in animal behavior were observed and recorded by Ethovision video software, and the number of revolutions of each animal within 30 min was counted manually.
3.3.4 APO-induced circling behavior: The animal circled rightwards with the left hind limb as the fulcrum. One turn was counted as one revolution by taking the head of the rat as a reference. […]

A further test deals with patients with early PD. The following applies: 24 weeks, cited from earlier work.

Take `C[C@H](NCc1ccc(OCc2cccc(F)c2)cc1)C(N)=O` [Compound B, Safinamide]: in test [1] (average dopamine concentration in mouse brain, all dose groups), the “effect on dopamine reduction in the MPTP model (FIG. 1)” value is given as “improvement effects”. Moreover, the “dopamine levels in dorsal striatum compared with modeling group G2” value in test [1] (compound B group (15 mg/kg i.p. QD 6 weeks)) is reported as “significantly higher”. For the same compound, the “time after discontinuation until physiological function completely restored” value on MAO-B (after discontinuation) is on record as 8 h. Further, on MAO-B, the “reversibility of MAO-B inhibition” value is reported as “reversible”. Moreover, at MAO-B, the “inhibitory strength to MAO-B than that to MAO-A” value is reported as 5000 fold. Moreover, in test [2] (G3, SAF 15 mpk P.O. QD), the “elevation in the number of revolutions compared with that before treatment” value came out at 5%. Besides, the “improvement of movement symptoms (total UPDRS score, LPDRS [sic])” value in the test on patients with early PD (safinamide 100 mg/d in combination with DA receptor agonist) is reported as “effective”; in the test with patients with early PD (safinamide 200 mg/d in combination with DA receptor agonist) it was “no effect in improving movement symptoms”.
On to `C#CCN[C@@H]1CCc2ccccc21` [rasagiline], for which, at MAO-B, the “reversibility of MAO-B inhibition” value is “irreversible” and the “inhibitory strength to MAO-B than that to MAO-A” value was 103 fold.
In the case of `CCCN[C@H]1CCc2nc(N)sc2C1` [Compound A, Pramipexole], the “reduction in the number of revolutions compared with that before treatment” value in test [2] (G4, PPX 0.1 mpk P.O. QD) came to 24%.
